We go through 23 molecules from PubChem BioAssay (NCI).

Several values for one entry are separate records, joined by “and”; a condition that tells them apart may be missing. Identical values can stand only once.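 Where inhibition never reached the appropriate level, the endpoint shown equals the highest concentration tested. Otherwise, values were interpolated linearly from a five-concentration, 48-hour dose response in 96-well plates. Abbreviation: GI50, concentration required for 50% inhibition of growth. TGI marks complete inhibition of growth.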

What all share (experiment): NCI anticancer screen, dose series, 48 h
For test [1], the system named is HOP-62 NSCLC.
The test system of test [2] is HOP-92 NSCLC.
Test [3] deals with KM12 colon.
Test [4] deals with NCI-H23 lung.
For test [5], the system named is SF-295 CNS.
Test [6] concerns SF-539 CNS.
Test [7] relates to SK-MEL-2 melanoma.
In test [8] the test system is SK-OV-3 ovarian.
Test [9] concerns CCRF-CEM leukemia.
Test [10] has as its system NCI-H460 lung.

As for `CCCCCCSSC(=S)N(CC)CC`, the GI50 is 34.6 µM in test [1]; 32.4 µM in [2]; 15.2 µM in test [3]; 27.8 µM in test [4]; 17.4 µM in [5]; 17.5 µM in test [6]. For the same molecule, the GI50 was 25 µM in test [7] and 28.6 µM in test [8]. The TGI in [1] was more than 100 µM; in [2] it was more than 100 µM; in test [3], 32.1 µM; in test [4], 92.8 µM; in test [5], 51.1 µM; in test [6] it was 43.3 µM. In addition, the TGI was 58.7 µM in test [7] and 71.1 µM in test [8].
Regarding `CCCCCC(O)C(O)CCC[C@H](O)[C@H]1CC[C@H]([C@H]2CC[C@H]([C@H](O)CCCCCCCCCCCCC3=C[C@H](C)OC3=O)O2)O1` (stereo partly drawn), the TGI in test [9] is 8.35 µM; in test [1] it was 32 µM; in test [2] it was 61.7 µM; in test [3] it was 29.1 µM; in [4] it was 23.3 µM; in test [10], 31.7 µM. The TGI in test [6] is 37 µM; in test [7] it was 5.16 µM and 37.4 µM. Also, the GI50 is 15.2 µM in test [1]; 9.78 µM in test [3]; 1.69 µM in [10]; 12.1 µM in test [6]; 15.8 µM in [7].
For the molecule `CC1=C(C(=O)Nc2ccccc2)C(c2ccccc2Cl)C(C(=O)Nc2ccccc2)=C(C)N1`, the TGI is 62.1 µM in test [9]; 38.5 µM in [1]; 45.2 µM in [2]; 71.7 µM in test [4]; 66.9 µM in [5]; 37.6 µM in [6]. Besides, the TGI in test [7] stood at 33.1 µM; in test [8], 80 µM.
Turning to `CCCCC#Cc1c(I)n(C)c(=O)[nH]c1=O`, the GI50 in test [9] was 1.74 µM; in test [1] it was 16.9 µM; in test [3], 16 µM; in [4], 2.14 µM; in [10], 20.1 µM; in test [5] it was 10.6 µM. Further, the GI50 in test [6] is 15.8 µM; in [7], 1.93 µM; in [8] it was 20.3 µM. Further, the TGI in test [9] is 3.68 µM; in test [1] it was 31 µM; in [3] it was 29.5 µM; in [4], 4.43 µM; in [10], 39.7 µM; in test [5] it was 22.7 µM. The TGI is 29.2 µM in test [6], 4.06 µM in test [7] and 34.6 µM in test [8].
As to `COc1ccc(C2=Nc3ccccc3SC(C)C2)cc1OC` (stereo not drawn), the TGI in test [9] is 87.3 µM; in test [2], more than 100 µM; in test [3] it was 36.3 µM; in test [4] it was 38.5 µM; in test [10], 36.3 µM; in [5] it was 38 µM. The TGI in test [7] amounted to 72.2 µM; in test [8], 39.5 µM.
Consider `Cc1ccc(N=C[N-]c2ccc(C)cc2)cc1.Cc1ccc(N=C[N-]c2ccc(C)cc2)cc1.O=C([O-])C(F)(F)F.O=C([O-])C(F)(F)F.[OH3+].[OH3+].[Rh+2].[Rh+2]`, for which the GI50 in test [9] was 23.2 µM; in [1], more than 100 µM; in [3], 35 µM; in test [4], 25.9 µM; in test [10] it was more than 100 µM; in test [5] it was 86.8 µM. The GI50 is 26.6 µM in test [6], 32.6 µM in [7] and more than 100 µM in [8]. The TGI in test [9] is 55.8 µM; in test [1] it was more than 100 µM; in test [3] it was more than 100 µM; in test [4], 70.3 µM; in [10] it was more than 100 µM; in [5], more than 100 µM. Also, the TGI is 78.7 µM in test [6], 69.8 µM in test [7] and more than 100 µM in [8].
On to `Clc1ccc(-c2c3ccc(=[N+]4CCCCC4)cc-3oc3cc(N4CCCCC4)ccc23)cc1`, for which the GI50 in test [9] was 0.153 µM; in test [1], 0.0635 µM; in test [8], 0.204 µM. The TGI in [9] came out at 1.97 µM; in [1] it was 0.202 µM; in test [8] it was 0.715 µM.
For `CS(=O)(=O)c1ccc(Nc2nc(N[C@H]3CCCC[C@H]3N)nc3cc[nH]c(=O)c23)cc1`, the GI50 in [9] was 1.24 µM; in [1] it was 3.02 µM; in [2], 2.04 µM; in [3], 0.491 µM; in test [4], 1.58 µM; in [10], 2.62 µM. For the same molecule, the GI50 in test [5] was 1.91 µM; in [6] it was 2.24 µM; in test [8] it was 3.17 µM. The TGI is more than 100 µM in test [9]; more than 100 µM in [1]; 23.6 µM in test [2]; 11.9 µM in test [3]; 6.01 µM in [4]; 11.5 µM in [10]. Further, the TGI in [5] is 5.84 µM; in test [6] it was 7.09 µM; in test [8] it was more than 100 µM.
For `CCC(C)CC(C)CC(C)/C=C(\C)C1=C(C)CC(C)(O)O1` (stereo not drawn), the TGI in [9] is more than 100 µM; in test [2], 79.7 µM; in test [4], more than 100 µM; in test [10] it was more than 100 µM; in [6], more than 100 µM; in test [8] it was more than 100 µM.
For `COC1=CC(C2c3cc4c(cc3[C@@H](Nc3ccc(F)cc3)C3COC(=O)[C@H]23)OCO4)=CC(=O)C1=O` (stereo partly drawn), the TGI in [9] was more than 29 µM; in test [1], 5.9 µM; in test [2] it was 31.7 µM; in test [3], 34.5 µM; in test [4], 9.97 µM; in test [10], 14.9 µM. In addition, the TGI in [5] worked out at 11.8 µM; in test [6], 20.3 µM; in [8], 23.1 µM.
Take `Cn1cc(C2=C(c3c[nH]c4ccccc34)C(=O)NC2=O)c2ccccc21`: the GI50 is 0.264 µM in test [9]; 0.585 µM in [1]; 0.586 µM in test [3]; 0.218 µM in test [4]; 0.732 µM in [10]; 0.201 µM in [5]. The GI50 in test [6] was 0.195 µM; in test [7], 1.09 µM; in test [8], 1.08 µM. Also, the TGI in test [1] was more than 25 µM; in test [3] it was more than 25 µM; in test [4], more than 25 µM; in test [10], more than 25 µM; in test [6], 1.14 µM; in test [7] it was more than 25 µM. Moreover, the TGI in test [8] was more than 25 µM.
As to `Cc1cccc(C(=O)O)c1C(=O)c1cccc2ccccc12`, the TGI in test [9], in [1], in [3], in test [4], in test [10] and in test [5] was more than 100 µM each time. Moreover, the TGI in [7] and in [8] was more than 100 µM throughout.
Take `CCCCCCCC1(c2ccc(N)cc2)CCC(=O)NC1=O` (stereo not drawn): the TGI in test [1] is more than 100 µM; in test [2], 51.9 µM; in [3] it was more than 100 µM; in test [4] it was more than 100 µM; in [10], more than 100 µM; in test [5], 88.1 µM. For the same molecule, the TGI in [7] and in [8] was more than 100 µM throughout.
Take `COc1ccc(-c2ccc(/C=N/n3c(COc4ccccc4Cl)nn(CN4CCOCC4)c3=S)o2)c([N+](=O)[O-])c1`: the GI50 was 18.7 µM in test [9]; 30 µM in test [1]; 21.6 µM in [2]; 17.1 µM in [3]; 22.9 µM in [4]; 19.8 µM in test [10]. Also, the GI50 is 38.1 µM in test [5], 28.6 µM in test [6] and 25.7 µM in [8]. Further, the TGI came out at 47.9 µM in [9]; 85.5 µM in [1]; 52.6 µM in [2]; 34.6 µM in test [3]; 62.7 µM in [4]; 49 µM in test [10]. The TGI in test [5] was more than 100 µM; in [6], 60.8 µM; in test [8] it was more than 100 µM.
In the case of `COCCOc1cc(C)cc(/C=C(C)/C=C/C2=C(C)CCCC2(C)C)n1`, the TGI in test [1], in [2], in [3], in [4], in test [10] and in test [5] was more than 100 µM throughout. The TGI in test [6], in [7] and in test [8] was more than 100 µM in each case.
As for `N#Cc1ccccc1NC(=O)C(=O)C1NC(=S)NC1=O` (stereo not drawn), the TGI in test [9], in [1], in test [2], in [3], in test [4] and in [10] was more than 100 µM throughout. The TGI in test [5] and in test [6] was more than 100 µM in each case.
For `Cc1ccc2nc(NC(=O)C(=O)C(C#N)c3ccc(Cl)cc3)sc2c1` (stereo not drawn), the TGI in test [1], in [2], in [3], in [4], in [10] and in [5] was more than 50 µM throughout. For the same molecule, the TGI in test [6], in test [7] and in [8] was more than 50 µM in each case.
`C/C(CN1C(=O)c2ccccc2C1=O)=N\NS(=O)(=O)c1cccc(C(=O)O)c1`: the TGI in [9], in [1], in test [3], in test [4], in test [10] and in [5] was more than 100 µM each time. Moreover, the TGI in test [6], in [7] and in [8] was more than 100 µM throughout.
Regarding `CCN(CC)CC1CCCCN1CC(=O)N1CC(C)C(=O)Nc2ccccc21` (stereo not drawn), the TGI in [9], in test [1], in test [2], in test [4], in test [10] and in test [5] was more than 100 µM each time. This molecule gave a TGI in [8] of more than 100 µM.
For `COC1CC(O)C(OC(=O)c2ccccc2)C(C)O1` (stereo not drawn), the TGI in test [9], in test [1], in test [2], in test [3], in test [4] and in test [10] was more than 100 µM each time. For the same molecule, the TGI in test [5] and in test [6] was more than 100 µM throughout.
In the case of `COc1cc(OC)cc(C2C3=C(COC3=O)Nc3cc(OC)ccc32)c1` (stereo not drawn), the GI50 in test [9], in test [1], in test [3], in test [4], in [10] and in test [5] was less than 0.01 µM each time. Moreover, the GI50 was less than 0.01 µM in [6], 0.335 µM in test [7] and less than 0.01 µM in test [8]. Besides, the TGI in test [9] was more than 100 µM; in test [1], 21.7 µM; in [3], less than 0.0106 µM; in test [4], more than 43.7 µM; in test [10], 0.495 µM; in test [5], 28.2 µM. Moreover, the TGI in test [6] was 15.7 µM; in test [7], more than 100 µM; in [8] it was less than 0.01 µM.
For `CCOC(=O)c1cc(-c2ccc(-c3cc(C(=O)OCC)c(C#N)c(N)c3C#N)cc2)c(C#N)c(N)c1C#N`, the TGI in test [9], in test [1], in test [3], in test [4], in test [10] and in [5] was more than 100 µM throughout. Further, the TGI in test [6], in [7] and in test [8] was more than 100 µM in each case.
As to `O=C(NNc1ccc(Cl)cc1)C1CCC(CNS(=O)(=O)c2ccccc2Cl)CC1` (stereo not drawn), the GI50 in test [9] was 39.2 µM; in [2], 17.3 µM; in test [3] it was 4.37 µM; in test [4] it was 15 µM; in test [10], 14.3 µM; in [5] it was 4.58 µM. The figures for the GI50 in [6] and in [7] were 17.4 µM and 30.9 µM, respectively. The TGI in [9] was more than 100 µM; in test [2], more than 100 µM; in test [3], 99.4 µM; in [4], 50.6 µM; in test [10], more than 100 µM; in test [5], 68.5 µM. Also, the TGI in test [6] was 45.1 µM; in test [7], more than 100 µM.
